From US20060074243A1, “Hydroxamic acid and amide compounds and their use as protease inhibitors” (Pharmacia Corporation, priority 2002, published 2006) come the findings set out here.

pKi: −log10 of the molar value. Bounds are passed on as bounds.

Holding throughout (experiment): In vitro MMP inhibition analysis (fluorogenic peptide substrate cleavage), Ki
What all share (type): biochemical
Common to all, as to details: Table 1

The target in one assay is T1, Human recombinant MMP-2 (Homo sapiens, UniProt P08253).
T1 construct: made in house; host or cells: MMP-2-transfected p2AHT2 cells
T1 sequence (P08253 110-660): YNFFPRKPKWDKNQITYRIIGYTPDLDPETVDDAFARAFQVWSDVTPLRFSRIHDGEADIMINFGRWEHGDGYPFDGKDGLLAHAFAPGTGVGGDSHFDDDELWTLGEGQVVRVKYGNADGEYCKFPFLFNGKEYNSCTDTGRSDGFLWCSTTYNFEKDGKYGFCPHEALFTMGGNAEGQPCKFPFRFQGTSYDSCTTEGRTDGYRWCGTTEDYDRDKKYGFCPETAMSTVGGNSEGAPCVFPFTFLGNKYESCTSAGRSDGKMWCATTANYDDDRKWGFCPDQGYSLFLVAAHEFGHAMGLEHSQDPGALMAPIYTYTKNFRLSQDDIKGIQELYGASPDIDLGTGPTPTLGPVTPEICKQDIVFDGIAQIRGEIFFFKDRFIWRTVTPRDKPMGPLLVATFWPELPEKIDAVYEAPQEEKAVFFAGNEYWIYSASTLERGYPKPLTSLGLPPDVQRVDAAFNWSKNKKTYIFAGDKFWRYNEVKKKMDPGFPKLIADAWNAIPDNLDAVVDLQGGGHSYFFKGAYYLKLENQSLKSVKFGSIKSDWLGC
How it is done:
(§1) Several compounds and salts were analyzed in an in vitro assay to determine their ability to inhibit the MMP cleavage of peptide substrates. Inhibition constant (Ki) were calculated from the assayed compound-MMP interactions.
(§2) Human recombinant MMP-1, MMP-2, MMP-9, MMP-13, and MMP-14 were used in this assay. All enzymes were prepared in Assignee's laboratories following usual laboratory procedures. Protocols for the preparation and use of these enzymes are available in the scientific literature. See, e.g., Enzyme Nomenclature (Academic Press, San Diego, Calif., 1992) (and the citations therein). See also, Frije et al., J. Biol. Chem., 26(24), 16766-73 (1994).
The MMP-2 proenzyme was purified by gelatin Sepharose chromatography from MMP-2-transfected p2AHT2 cells provided by Dr. Gregory Goldberg of Washington University (St. Louis, Mo.).
(§3) All MMPs were activated using 4-aminophenylmercuric acetate (“APMA”, Sigma Chemical, St. Louis, Mo.) or trypsin. MMP-9 also was activated using human recombinant MMP-3 (purified in Assignee's laboratory following standard cloning and purification techniques).
(§4) The following fluorogenic, methoxycoumarin-containing polypeptide substrate (I) was used in the MMP inhibition assays: MCA-ArgProLeuGlyLeuDpaAlaArgGluArgNH2 (I) “MCA” is 7-methoxycoumarin-4-yl acetyl. Substrate (I) was prepared Assignee's laboratory. In the absence of MMP inhibitory activity, the substrate is cleaved at the Gly-Leu peptide bond. This cleavage separates the highly fluorogenic peptide from the 2,4-dinitrophenyl quencher, thus resulting in increase of fluorescent intensity.
(§5) The stock solutions of the assayed compounds and salts were prepared in […] (DMSO). These stock solutions were diluted in Buffer A (100 mM Tris-HCl, 100 mM NaCl, 10 mM CaCl2, 0.05% polyoxyethylene 23 lauryl ether, pH 7.5) to obtain solutions with different compound concentrations, i.e., assay solutions with different concentrations of the assayed […] compound. The experiment controls contained the same amount of Buffer A/DMSO as the assayed sample, but contained none of the tested compound or salt.
(§6) The assays from which the Ki determinations were made were performed as follows. The assayed compound samples were incubated in separate wells of untreated white polystyrene plates (Nunc Nalgene International, Rochester, N.Y.), and analyzed on a Tecan SpectraFlour Plus plate reader. The excitation wavelength was 330 nm, and the emission wavelength—420 nm. All samples (assayed compounds and controls) were incubated in separate plate wells at room temperature for 1 hr in the presence of 4 μM of MMP substrate (I). In the absence of MMP inhibitory activity, substrate (I) was cleaved at the Gly-Leu bond resulting in an increase of relative fluorescence. Inhibition was observed as a reduced rate of this increase in relative fluorescence. […] This protocol is a modification of method by Knight et al., FEBS Lett., 296(3), 263-266 (1992). Apparent inhibitory constants were determined by non-linear regression of reaction velocity as a function of inhibitor and enzyme concentration using Morrison's equation, as described by Kuzmic, Anal. Biochem. 286, 45-50 (2000). Modifications were made in the non-linear regression method to allow a common control reaction rate and effective enzyme concentration to be shared between all dose-response relationships on a given assay plate. Since the substrate concentration was chosen to be at or below the Km, the apparent Ki's from this analysis were reported as Ki's without correction for the influence of substrate.
(§7) The above protocols were used to determine Ki constants for the compounds in Examples 2-35 above. All Ki values in Table 1 are given in nM units.

A further assay addresses T2, Human recombinant MMP-1 (Homo sapiens, UniProt P03956).
T2 construct: made in house; host or cells: MMP-1-transfected HT-1080 cells (spent media)
T2 sequence (P03956 100-469): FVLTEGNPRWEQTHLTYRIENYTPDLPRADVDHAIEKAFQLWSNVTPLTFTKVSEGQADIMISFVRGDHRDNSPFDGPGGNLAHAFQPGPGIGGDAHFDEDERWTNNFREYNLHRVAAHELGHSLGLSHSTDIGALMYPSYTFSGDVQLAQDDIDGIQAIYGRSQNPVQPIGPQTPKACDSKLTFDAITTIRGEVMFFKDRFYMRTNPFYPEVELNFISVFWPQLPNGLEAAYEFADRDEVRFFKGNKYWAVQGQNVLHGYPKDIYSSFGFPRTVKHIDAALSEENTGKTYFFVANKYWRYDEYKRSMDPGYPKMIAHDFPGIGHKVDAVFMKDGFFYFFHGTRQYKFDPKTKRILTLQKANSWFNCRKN
How it is done:
as §1, §2
The MMP-1 proenzyme was purified from the spent media of MMP-1-transfected HT-1080 cells provided by Dr. Harold Welgus of Washington University (St. Louis, Mo.). The protein was purified on a zinc chelating column.
as §3, §4, §5, §6, §7

Another assay deals with T3, Human recombinant MMP-9 (Homo sapiens, UniProt P14780).
T3 construct: made in house; host or cells: MMP-9-transfected HT1080 cells (spent media)
T3 sequence (P14780 107-707 limits assumed): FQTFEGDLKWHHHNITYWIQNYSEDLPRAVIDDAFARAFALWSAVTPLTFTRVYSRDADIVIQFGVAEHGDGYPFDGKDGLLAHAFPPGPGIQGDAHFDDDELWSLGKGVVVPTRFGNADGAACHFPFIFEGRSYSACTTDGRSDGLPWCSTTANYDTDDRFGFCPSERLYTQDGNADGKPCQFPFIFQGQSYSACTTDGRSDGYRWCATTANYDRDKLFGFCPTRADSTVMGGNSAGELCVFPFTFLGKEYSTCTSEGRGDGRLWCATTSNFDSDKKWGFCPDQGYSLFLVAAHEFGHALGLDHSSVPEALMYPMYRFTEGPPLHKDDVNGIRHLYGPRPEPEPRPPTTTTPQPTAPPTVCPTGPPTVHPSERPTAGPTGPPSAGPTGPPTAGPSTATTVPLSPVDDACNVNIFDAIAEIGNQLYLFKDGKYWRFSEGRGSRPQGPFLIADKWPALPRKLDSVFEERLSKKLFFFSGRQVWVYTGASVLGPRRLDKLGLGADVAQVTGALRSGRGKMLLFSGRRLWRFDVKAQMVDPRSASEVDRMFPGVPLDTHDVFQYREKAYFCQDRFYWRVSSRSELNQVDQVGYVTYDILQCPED
How it is done:
as §1, §2
The MMP-9 proenzyme was purified by gelatin Sepharose chromatography from spent media of MMP-9-transfected HT1080 cells provided by Dr. Howard Welgus of Washington University (St. Louis, Mo.).
as §3, §4, §5, §6, §7

For the molecule `O=C(NO)C1(S(=O)(=O)c2ccc(-c3ccc(CCC(F)(F)C(F)(F)F)cn3)cc2)CCOCC1` [Example 36], the pKi – broadly, −log10 of the Ki, conventionally taken in molar units – at Human recombinant MMP-2 is 10.15; on Human recombinant MMP-1, 5.33; on Human recombinant MMP-9, 9.59.
In the same order, the values of `CCOCCOc1ccc(-c2ccc(S(=O)(=O)C3(C(=O)NO)CCOCC3)cc2)cc1` [Example 37] are 10.05, 5.84 and 8.45.
Turning to `O=C(NO)C1(S(=O)(=O)c2ccc(-c3ccc(OC(F)(F)C(F)F)cc3)cc2)CCN(CCl)CC1` [Example 38], the negative logarithm of the Ki (pKi) was 10.43 at Human recombinant MMP-2, 6.19 on Human recombinant MMP-1 and 9.90 on Human recombinant MMP-9.
For `COCCN1CCC(C(=O)NO)(S(=O)(=O)c2ccc(-c3ccc(OC(F)(F)C(F)F)cc3)cc2)CC1` [Example 39], the values for the pKi at Human recombinant MMP-2, on Human recombinant MMP-1 and on Human recombinant MMP-9 were 11.05, 6.47 and 10.35, respectively.
For `O=C(NO)C1(S(=O)(=O)c2ccc(-c3ccc(OC(F)(F)C(F)F)cc3)cc2)CCN(C2CC2)CC1` [Example 40], the pKi on Human recombinant MMP-2 was 10.13; on Human recombinant MMP-1, 6.29; on Human recombinant MMP-9, 9.99.
As for `O=C(NO)C1(S(=O)(=O)c2ccc(-c3ccc(CCC(F)(F)C(F)(F)F)cc3)cc2)CCOCC1` [Example 41], the values for the pKi at Human recombinant MMP-2, at Human recombinant MMP-1 and at Human recombinant MMP-9 were 9.43, 5.29 and 9.03, respectively.
Take `O=C(NO)C1(S(=O)(=O)c2ccc(-c3ccc(CCCC(F)(F)F)cc3)cc2)CCOCC1` [Example 42]: the pKi at Human recombinant MMP-2 is 9.47; at Human recombinant MMP-1, 5.57; on Human recombinant MMP-9 it was 9.19.
Regarding `COCCN1CCC(C(=O)NO)(S(=O)(=O)c2ccc(-c3ccc(CCCC(F)(F)F)cc3)cc2)CC1` [Example 43], the pKi on Human recombinant MMP-2 is 9.54; at Human recombinant MMP-1, 5.16; on Human recombinant MMP-9 it was 9.37.
As for `O=C(NO)C1(S(=O)(=O)c2ccc(-c3ccc(CCCC(F)(F)F)cc3)cc2)CCN(C2CC2)CC1` [Example 44], the pKi on Human recombinant MMP-2 is 9.32; at Human recombinant MMP-1 it was 5.06; at Human recombinant MMP-9, 9.17.
Take `O=C(NO)C1(S(=O)(=O)c2ccc(-c3ccc(CCC(F)(F)C(F)(F)F)cc3)cc2)CCN(C2CC2)CC1` [Example 45]: the results for the pKi at Human recombinant MMP-2, at Human recombinant MMP-1 and at Human recombinant MMP-9 were 9.26, less than 5.00 and 8.94, respectively.
For `COCCN1CCC(C(=O)NO)(S(=O)(=O)c2ccc(-c3ccc(CCC(F)(F)C(F)(F)F)cc3)cc2)CC1` [Example 46], the pKi was 9.68 on Human recombinant MMP-2, less than 5.00 at Human recombinant MMP-1 and 9.42 on Human recombinant MMP-9.
Take `COCCC(C(=O)NO)S(=O)(=O)c1ccc(-c2ccc(CCCC(F)(F)F)cc2)cc1` (stereo not drawn) [Example 47]: the pKi at Human recombinant MMP-2 is 8.93; at Human recombinant MMP-1, less than 5.00; on Human recombinant MMP-9, 8.55.
For `CC(C)(C)N1CCC(C(=O)NO)(S(=O)(=O)c2ccc(-c3ccc(CCCC(F)(F)F)cc3)cc2)CC1` [Example 48], the results for the pKi at Human recombinant MMP-2, at Human recombinant MMP-1 and at Human recombinant MMP-9 were 8.74, less than 5.00 and 8.45, respectively.
With `O=C(NO)C1(S(=O)(=O)c2ccc(-c3cnc(CCC4CC4)cn3)cc2)CCOCC1` [Example 49], the pKi was 8.63 on Human recombinant MMP-2, less than 5.00 on Human recombinant MMP-1 and 9.06 on Human recombinant MMP-9.
Consider `O=C(NO)C1(S(=O)(=O)c2ccc(-c3ccc(CCC(F)(F)C(F)(F)F)cn3)cc2)CCN(C2CC2)CC1` [Example 50], for which the pKi on Human recombinant MMP-2 was 9.72; on Human recombinant MMP-1, 5.10; on Human recombinant MMP-9, 9.66.
Consider `O=C(NO)C1(S(=O)(=O)c2ccc(-c3ccc(CCCC(F)(F)F)cn3)cc2)CCN(C2CC2)CC1` [Example 51], for which the pKi on Human recombinant MMP-2 is 9.80; at Human recombinant MMP-1, 5.02; at Human recombinant MMP-9, 9.66.
Consider `CCN1CCC(C(=O)NO)(S(=O)(=O)c2ccc(-c3ccc(CCC(F)(F)C(F)(F)F)cn3)cc2)CC1` [Example 52], for which the pKi at Human recombinant MMP-2 is 9.68; at Human recombinant MMP-1, less than 5.00; on Human recombinant MMP-9, 9.24.
For `CCN1CCC(C(=O)NO)(S(=O)(=O)c2ccc(-c3ccc(CCCC(F)(F)F)cn3)cc2)CC1` [Example 53], the pKi on Human recombinant MMP-2 was 9.34; on Human recombinant MMP-1, less than 5.00; at Human recombinant MMP-9, 9.00.
In the case of `COCCN1CCC(C(=O)NO)(S(=O)(=O)c2ccc(-c3ccc(CCCC(F)(F)F)cn3)cc2)CC1` [Example 54], the pKi on Human recombinant MMP-2 is 9.92; on Human recombinant MMP-1, 5.20; at Human recombinant MMP-9, 9.60.
For `O=C(NO)C1(S(=O)(=O)c2ccc(-c3cnc(CCC(F)(F)C(F)(F)F)cn3)cc2)CCOCC1` [Example 55], in that order: 9.23, less than 5.00 and 9.46.
For `O=C(NO)C1(S(=O)(=O)c2ccc(-c3ccc(CCCC(F)F)cc3)cc2)CCOCC1` [Example 57], in that order: 9.82, 5.67 and 9.42.
For `O=C(NO)C1(S(=O)(=O)c2ccc(-c3cnc(CCCC(F)(F)F)cn3)cc2)CCOCC1` [Example 58], the pKi was 8.69 at Human recombinant MMP-2, less than 5.00 on Human recombinant MMP-1 and 8.78 on Human recombinant MMP-9.
`CC(F)(F)CCc1ccc(-c2ccc(S(=O)(=O)C3(C(=O)NO)CCN(C4CC4)CC3)cc2)cc1` [Example 59]: the pKi was 9.96 at Human recombinant MMP-2, 5.66 on Human recombinant MMP-1 and 9.80 on Human recombinant MMP-9.
As for `CC(F)(F)CCc1cnc(-c2ccc(S(=O)(=O)C3(C(=O)NO)CCOCC3)cc2)cn1` [Example 60], the results for the pKi on Human recombinant MMP-2, on Human recombinant MMP-1 and at Human recombinant MMP-9 were 9.33, less than 5.00 and 9.21, respectively.
Consider `CCN1CCC(C(=O)NO)(S(=O)(=O)c2ccc(-c3ccc(CCC(C)(F)F)cc3)cc2)CC1` [Example 61], for which the pKi on Human recombinant MMP-2 was 9.96; on Human recombinant MMP-1, 5.52; at Human recombinant MMP-9 it was 9.59.
